Laboratory results: patent US9452225B2, “GLP-1 prodrugs” (Novo Nordisk A/S, priority 2012, dated 2016)

How the values were obtained:
[1] = Prodrug half-life in vitro, buffer method; type: physicochemical; conditions: 25 mM phosphate buffer pH 7.4, 37° C., 1.0 mg/mL; UPLC_A, or UPLC_B for compounds marked *; read-out: T½ in buffer (converted)
Description: (§1) The purpose of this example is to test the in vitro half-lives (T½) of the GLP-1 prodrugs of the invention, in comparison to conceptually different prodrugs. In what follows two in vitro methods are described, viz. a method conducted in buffer, and a method conducted in plasma.
Buffer: 25 mM Phosphate (Ionic strength: 154 mM, pH 7.4 at 37° C.)
NaH2PO4.2H2O (1.95 g, 12.5 mmol) and NaCl (2.61 g, 44.7 mmol) were dissolved in millipore water (approximately 450 mL) and adjusted to pH=7.44 at approximately 20° C. with concentrated NaOH and 1 M NaOH. Water was added to 500.00 mL.
The compound to be tested was dissolved in buffer to a concentration of 1.0 mg/mL and incubated at 37° C. Samples were taken at adequate intervals and the % parent drug compared to prodrug formed as function of time was evaluated by the UPLC method as referred to in Table 1 by comparing the areas under the curves for the two corresponding peaks. These UPLC methods are described in the general experimental section above (UPLC_A, and UPLC_B).
(§2) The half life of the prodrug (T½) was calculated from the slope of a linear fit to the curve of ln(% prodrug (Y)) as a function of time (t), as follows: Y=÷αt+k Math. 1 T½=ln(2)/α Math. 2 Plasma Method Buffer: 200 mM Phosphate, pH 7.4 at 37° C.
The resulting half-lives are set out in Table 1 below. For comparison, the T½ in buffer of native GLP-1(7-37) (His7 variant of SEQ ID NO: 1) was 13 minutes (0.2 hours).

[2] = Pharmacokinetic study in minipigs after i.v. administration; type: in vivo, Göttingen minipigs; conditions: iv, minipig
Description: The purpose of this study is to determine the pharmacokinetic (PK) profile in vivo of a prodrug of the invention (Example 4) and the corresponding parent drug (Example B2.2) after i.v. administration to minipigs, e.g. the prolongation of their time in the body and thereby their time of action. This is done in a PK study, where the terminal half-life of the compound in question is determined. By terminal half-life is generally meant the period of time it takes to halve a certain plasma concentration, measured after the initial distribution phase.
Threefemale Göttingen minipigs, obtained from Ellegaard Göttingen Minipigs (Dalmose, Denmark) approximately 6-8 months of age and weighing approximately 16-21 kg (prodrug pig 16.8 kg, drug pigs 21.3 and 21.1 kg), were used in the studies. The minipigs were housed individually and fed restrictedly once daily with SDS minipig diet (Special Diets Services, Essex, UK). […]
The prodrug of Example 4 and the corresponding drug of Example B2.2 were dissolved in 50 mM sodium phosphate, 145 mM sodium chloride, 0.05% polysorbate 80, pH 7.4 to a suitable concentration (for example, 169.6 nmol/ml for the prodrug). […] Individual plasma concentration-time profiles were analyzed by a non-compartmental model in WinNonlin v. […] Also, the resulting terminal half-lives (harmonic mean/h) were determined, if possible. […]

[3] = Prodrug half-life in vitro, plasma method (minipig heparin plasma); type: in vitro ADME; conditions: minipig heparin plasma 800 μL + 200 μL 200 mM phosphate pH 7.4, 37° C.; UPLC_A, or UPLC_B for compounds marked *; read-out: T½ in plasma (converted)
Description: as §1, §2
NaH2PO4.2H2O (15.61 g, 100 mmol) was dissolved in milliQ water (approximately 450 mL) and adjusted to pH=7.44 at approximately 20° C. with concentrated NaOH (aq) and 1 M NaOH (aq). Water was added to 500.00 mL.
Serum: Minipig Serum, Heparin-Plasma
Fresh blood was tapped from minipig into 9 mL LH lithium heparin Vacuette tubes from Greiner bio-one (catalogue number 455084). After cooling on ice it was centrifuged (10 min, 4° C., 3000 rpm/1942G) and the supernatant isolated and kept at −18° C. before use.
100 nmol of the compound to be tested was dissolved in 200 μL buffer, added to 800 μL plasma (centrifuged), and incubated at 37° C. Samples (50 μL) were drawn at appropriate intervals into 150 μL absolute EtOH. After a short stirring the sample was centrifuged and the supernatant transferred to the UPLC vial (10 μL injection).
The % parent drug compared to prodrug formed as a function of time was evaluated by UPLC, and the half-life calculated, both in the same way as described above under the Buffer method.

[4] = target: T1, human GLP-1 receptor (Homo sapiens, UniProt P43220); assay: In vitro potency, AlphaScreen cAMP assay on membranes; type: biochemical; conditions: cAMP formation, membranes of BHK467-12A cells
T1 construct: expressed in transfected cells; host or cells: BHK cells, clone FCW467-12A (parent line BHKTS13), membranes
T1 sequence (P43220 24-463): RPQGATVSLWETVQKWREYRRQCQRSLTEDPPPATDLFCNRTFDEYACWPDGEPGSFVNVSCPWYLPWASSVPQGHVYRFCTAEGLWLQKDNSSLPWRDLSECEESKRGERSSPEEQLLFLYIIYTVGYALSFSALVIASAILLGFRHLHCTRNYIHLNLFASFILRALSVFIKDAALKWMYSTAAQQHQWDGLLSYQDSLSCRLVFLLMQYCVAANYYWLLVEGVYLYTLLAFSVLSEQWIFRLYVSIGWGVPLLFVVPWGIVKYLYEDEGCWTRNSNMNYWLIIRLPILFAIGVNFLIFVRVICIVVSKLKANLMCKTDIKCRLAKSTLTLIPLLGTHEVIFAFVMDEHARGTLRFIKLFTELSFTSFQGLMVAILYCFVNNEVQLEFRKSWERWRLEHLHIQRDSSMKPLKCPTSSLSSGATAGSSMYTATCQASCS
Description: The purpose of this example is to test the activity, or potency, in vitro of, for example, the GLP-1 parent drugs of the prodrugs of the invention.
Purified plasma membranes from a stable transfected cell line, BHK467-12A (tk-ts13), expressing the human GLP-1 receptor were stimulated with the GLP-1 drug in question, and the potency of cAMP production was measured using the AlphaScreen™ cAMP Assay Kit from Perkin Elmer Life Sciences. The basic principle of The AlphaScreen Assay is a competition between endogenous cAMP and exogenously added biotin-cAMP. The capture of cAMP is achieved by using a specific antibody conjugated to acceptor beads.
A stable transfected cell line and a high expressing clone were selected for screening. The cells were grown at 5% CO2 in DMEM, 10% FCS, 1% Pen/Strep (Penicillin/Streptomycin) and preferably 0.5 (alternatively 1.0 mg/ml) of the selection marker G418.
Cells at approximate 80% confluence were washed twice with PBS and harvested with Versene (aqueous solution of the tetrasodium salt of ethylenediaminetetraacetic acid), centrifuged 5 min at 1000 rpm and the supernatant removed. The additional steps were all made on ice. The cell pellet was homogenised by the Ultrathurax for 20-30 s in 10 ml of Buffer 1 (20 mM Na-HEPES, 10 mM EDTA, pH=7.4), centrifuged 15 min at 20,000 rpm and the pellet resuspended in 10 ml of Buffer 2 (20 mM Na-HEPES, 0.1 mM EDTA, pH=7.4). The suspension was homogenised for 20-30 s and centrifuged 15 min at 20,000 rpm. Suspension in Buffer 2, homogenisation and centrifugation was repeated once and the membranes were resuspended in Buffer 2. The protein concentration was determined and the membranes stored at −80° C. until use.
The assay was performed in flat-bottom 96-well plates (Costar cat. no: 3693). The final volume per well was 50 μl.
AlphaScreen cAMP Assay Kit from Perkin Elmer Life Sciences (cat. No: 6760625M); containing Anti-cAMP Acceptor beads (10 U/μl), Streptavidin Donor beads (10 U/μl) and Biotinylated-cAMP (133 U/μl). […]

Row | Structure (SMILES) | half-life [1] [h] | half-life ([2]; in vivo, prodrug given i.v. 8 nmol/kg, half-life of the released parent drug, estimated from the bell-shaped curve, read-out: apparent terminal half-life of corresponding drug (estimated) (converted)) [h] | half-life [3] [h] | half-life ([2]; female, Göttingen, plasma, parent drug given i.v. 3 nmol/kg, read-out: Terminal half-life (harmonic mean/h) (converted)) [h] | EC50 [4] [pM]
1 | CC[C@H](C)[C@H](NC)C(=O)N[C@H](C(=O)O[C@@H](Cc1c[nH]cn1)C(=O)N[C@@H](C)C(=O)N[C@@H](CCC(=O)O)C(=O)NCC(=O)N[C@H](C(=O)N[C@@H](Cc1ccccc1)C(=O)N[C@H](C(=O)N[C@@H](CO)C(=O)N[C@@H](CC(=O)O)C(=O)N[C@H](C(=O)N[C@@H](CO)C(=O)N[C@@H](CO)C(=O)N[C@@H](Cc1ccc(O)cc1)C(=O)N[C@@H](CC(C)C)C(=O)N[C@@H](CCC(=O)O)C(=O)NCC(=O)N[C@@H](CCC(N)=O)C(=O)N[C@@H](C)C(=O)N[C@@H](C)C(=O)N[C@@H](CCCCNC(=O)COCCOCCNC(=O)COCCOCCNC(=O)CC[C@H](NC(=O)CCCCCCCCCOc1ccc(C(=O)O)cc1)C(=O)O)C(=O)N[C@@H](CCC(=O)O)C(=O)N[C@@H](Cc1ccccc1)C(=O)N[C@H](C(=O)N[C@@H](C)C(=O)N[C@@H](Cc1c[nH]c2ccccc12)C(=O)N[C@@H](CC(C)C)C(=O)N[C@H](C(=O)N[C@@H](CCCNC(=N)N)C(=O)NCC(=O)N[C@@H](CCCNC(=N)N)C(=O)N[C@@H](CCCCNC(=O)COCCOCCNC(=O)COCCOCCNC(=O)CC[C@H](NC(=O)CCCCCCCCCOc1ccc(C(=O)O)cc1)C(=O)O)C(=O)O)C(C)C)[C@@H](C)CC)C(C)C)[C@@H](C)O)[C@@H](C)O)C(C)C [Example 4] | 58.9 | 68 | 27.9 | – | –
2 | CC[C@H](C)[C@H](NC(=O)[C@H](Cc1ccccc1)NC(=O)[C@H](CCC(=O)O)NC(=O)[C@H](CCCCNC(=O)COCCOCCNC(=O)COCCOCCNC(=O)CC[C@H](NC(=O)CCCCCCCCCOc1ccc(C(=O)O)cc1)C(=O)O)NC(=O)[C@H](C)NC(=O)[C@H](C)NC(=O)[C@H](CCC(N)=O)NC(=O)CNC(=O)[C@H](CCC(=O)O)NC(=O)[C@H](CC(C)C)NC(=O)[C@H](Cc1ccc(O)cc1)NC(=O)[C@H](CO)NC(=O)[C@H](CO)NC(=O)[C@@H](NC(=O)[C@H](CC(=O)O)NC(=O)[C@H](CO)NC(=O)[C@@H](NC(=O)[C@H](Cc1ccccc1)NC(=O)[C@@H](NC(=O)CNC(=O)[C@H](CCC(=O)O)NC(=O)[C@H](C)NC(=O)[C@@H](O)Cc1c[nH]cn1)[C@@H](C)O)[C@@H](C)O)C(C)C)C(=O)N[C@@H](C)C(=O)N[C@@H](Cc1c[nH]c2ccccc12)C(=O)N[C@@H](CC(C)C)C(=O)N[C@H](C(=O)N[C@@H](CCCNC(=N)N)C(=O)NCC(=O)N[C@@H](CCCNC(=N)N)C(=O)N[C@@H](CCCCNC(=O)COCCOCCNC(=O)COCCOCCNC(=O)CC[C@H](NC(=O)CCCCCCCCCOc1ccc(C(=O)O)cc1)C(=O)O)C(=O)O)C(C)C [Example B2.2] | – | – | – | 37 | 460
